Some results are limits rather than exact numbers.

Sequence of ALK kinase (Q9UM73 19-1620): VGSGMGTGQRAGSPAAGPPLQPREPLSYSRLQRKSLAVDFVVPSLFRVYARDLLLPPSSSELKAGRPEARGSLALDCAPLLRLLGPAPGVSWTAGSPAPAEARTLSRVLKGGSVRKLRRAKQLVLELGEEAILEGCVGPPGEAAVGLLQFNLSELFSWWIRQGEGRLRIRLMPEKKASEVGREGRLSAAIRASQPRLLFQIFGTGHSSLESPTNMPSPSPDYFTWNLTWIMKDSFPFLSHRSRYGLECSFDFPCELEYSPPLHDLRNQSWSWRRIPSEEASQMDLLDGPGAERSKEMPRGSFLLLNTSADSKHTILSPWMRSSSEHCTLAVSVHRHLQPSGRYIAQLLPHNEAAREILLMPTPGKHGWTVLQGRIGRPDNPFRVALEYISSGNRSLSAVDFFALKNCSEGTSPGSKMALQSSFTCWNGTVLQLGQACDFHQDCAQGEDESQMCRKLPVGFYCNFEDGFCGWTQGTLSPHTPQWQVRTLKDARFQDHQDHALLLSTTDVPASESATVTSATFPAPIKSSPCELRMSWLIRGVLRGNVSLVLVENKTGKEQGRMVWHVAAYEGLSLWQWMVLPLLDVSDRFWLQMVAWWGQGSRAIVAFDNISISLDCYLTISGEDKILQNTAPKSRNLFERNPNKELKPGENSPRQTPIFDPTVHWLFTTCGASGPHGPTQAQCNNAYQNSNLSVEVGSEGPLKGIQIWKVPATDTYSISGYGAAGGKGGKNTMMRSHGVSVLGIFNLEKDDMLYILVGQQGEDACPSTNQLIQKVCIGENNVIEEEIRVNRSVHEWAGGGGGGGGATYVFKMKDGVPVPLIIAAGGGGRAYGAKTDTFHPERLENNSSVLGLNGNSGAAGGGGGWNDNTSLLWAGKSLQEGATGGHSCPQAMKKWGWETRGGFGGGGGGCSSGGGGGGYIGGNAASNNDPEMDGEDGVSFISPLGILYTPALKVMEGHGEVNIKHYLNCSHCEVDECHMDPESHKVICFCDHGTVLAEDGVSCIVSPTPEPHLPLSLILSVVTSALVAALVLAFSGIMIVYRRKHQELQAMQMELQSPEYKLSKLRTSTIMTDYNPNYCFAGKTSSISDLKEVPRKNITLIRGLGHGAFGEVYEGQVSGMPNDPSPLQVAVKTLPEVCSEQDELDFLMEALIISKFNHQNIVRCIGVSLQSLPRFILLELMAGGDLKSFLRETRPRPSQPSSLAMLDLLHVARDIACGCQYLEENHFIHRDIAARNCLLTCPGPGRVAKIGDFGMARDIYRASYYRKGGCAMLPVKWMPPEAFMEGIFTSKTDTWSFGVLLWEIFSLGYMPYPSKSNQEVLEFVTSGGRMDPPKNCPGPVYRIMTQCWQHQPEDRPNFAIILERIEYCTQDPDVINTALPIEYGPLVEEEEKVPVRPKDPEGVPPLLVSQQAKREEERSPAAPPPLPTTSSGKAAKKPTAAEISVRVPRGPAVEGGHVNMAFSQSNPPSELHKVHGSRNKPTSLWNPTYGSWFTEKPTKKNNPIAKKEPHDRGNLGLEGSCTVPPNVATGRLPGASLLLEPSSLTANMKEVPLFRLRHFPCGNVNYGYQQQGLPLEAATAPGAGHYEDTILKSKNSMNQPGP

For the first test, the system named is karpas 299 cells. The test is described as follows: Measurement of inhibition of cell proliferation (Karpas), ATPlite. It is filed as cell-based. The conditions noted are these: Homo sapiens, KARPAS-299, 72 h. In a few lines:
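Karpas 299 cells seeded at 300 000 cells/ml, treated on Day 1 and incubated at 37° C under 5% CO2 for 72 h. Viability measured on Day 4 by ATPlite luminescence of ATP from viable cells. IC50 derived by non-linear sigmoid dose-response regression with variable Hill slope.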
For orientation: Cellular ATP, detected with luciferase, serves as a proxy for viable cell number.
As usually defined, the IC50 is the point on the concentration scale where inhibition reaches its midpoint. The low end stands for greater potency in that assay, the high end for weaker potency in that assay. `COC(=O)c1c(-c2ccc(O)cc2F)nc2[nH]nc(C)c2c1-c1ccc(N2CCNCC2)cc1` [Compound 284] showed an IC50 of less than 100 nM.

Take `N#Cc1c(-c2cncs2)nc2[nH]nc(-c3ccco3)c2c1-c1ccc(N2CCNCC2)cc1` [Compound 285]: the 50% inhibitory concentration (IC50) lay in the range of 1000 to 10000 nM.

For `Cc1cc(-c2nc3[nH]nc(C)c3c(-c3ccc(N4CCNCC4)cc3)c2C#N)c(F)cc1O` [Compound 286], the IC50 is 100 to 1000 nM.

In the case of `N#Cc1c(-c2ccc(O)cc2F)nc2[nH]ncc2c1-c1ccc(-c2ccc(S(N)(=O)=O)cc2)o1` [Compound 287], the IC50 was 1000 to 10000 nM.

Consider `COc1ccc(-c2nc3[nH]ncc3c(-c3ccc(C#CCN)o3)c2C#N)cc1` [Compound 288], for which the IC50 was greater than 10000 nM.

`N#Cc1c(-c2ccc(O)cc2)nc2[nH]ncc2c1-c1ccc(CCCN)o1` [Compound 289] displayed an IC50 of 100 to 1000 nM.

In turn, `N#Cc1c(-c2ccc(CCl)cc2)nc2[nH]nc(-c3ccc(C(F)(F)F)cc3)c2c1-c1ccc(N2CCNCC2)cc1` [Compound 290] displayed an IC50 of 1000 to 10000 nM.

In turn, `N#Cc1c(-c2ccc(CO)cc2)nc2[nH]nc(-c3ccc(C(F)(F)F)cc3)c2c1-c1ccc(N2CCNCC2)cc1` [Compound 291] yielded an IC50 of 1000 to 10000 nM.

`COC(=O)c1c(-c2ccc(O)c(C)c2)nc2[nH]nc(C)c2c1-c1ccc(N2CCNCC2)cc1` [Compound 293] yielded an IC50 of less than 100 nM.

The molecule `Cc1cc(-c2nc3[nH]nc(N)c3c(-c3ccc(N4CCNCC4)cc3)c2C#N)c(F)cc1O` [Compound 294] yielded an IC50 of 100 to 1000 nM.

As for `COC(=O)c1c(-c2ccc(O)cc2F)nc2[nH]nc(N)c2c1-c1ccc(N2CCNCC2)cc1` [Compound 295], the IC50 lay within 100 to 1000 nM.

`CC(C)(C)C(=O)Oc1ccc(-c2nc3[nH]nc(-c4cccs4)c3c(-c3ccc(N4CCNCC4)cc3)c2C#N)c(F)c1` [Compound 296] had a concentration for half-maximal inhibition (IC50) of 100 to 1000 nM.

Molecule `N#Cc1c(-c2ccc(OC(=O)c3ccccc3)cc2F)nc2[nH]nc(-c3cccs3)c2c1-c1ccc(N2CCNCC2)cc1` [Compound 297] returned an IC50 of 100 to 1000 nM.

Molecule `CC(=O)Oc1ccc(-c2nc3[nH]nc(-c4cccs4)c3c(-c3ccc(N4CCNCC4)cc3)c2C#N)c(F)c1` [Compound 298] returned a 50% inhibitory concentration (IC50) greater than 10000 nM.

Regarding `CN(C)CCN1CCN(c2ccc(-c3c(C#N)c(-c4ccc(O)cc4)nc4[nH]nc(-c5ccc(Cl)cc5)c34)c(F)c2)CC1` [Compound 299], the concentration for half-maximal inhibition (IC50) was in the range of 1000 to 10000 nM.

`COC(=O)c1c(-c2ccc(OC(=O)C(C)(C)C)cc2F)nc2[nH]nc(C)c2c1-c1ccc(N2CCNCC2)cc1` [Compound 300] came in with a concentration for half-maximal inhibition (IC50) of less than 100 nM.

As to `CC(C)(C)C(=O)Oc1ccc(-c2nc3[nH]nc(N)c3c(-c3ccc(N4CCNCC4)cc3)c2C#N)c(F)c1` [Compound 301], the IC50 was greater than 10000 nM.

The next test deals with ALK kinase (Homo sapiens, UniProt Q9UM73). The test is described as follows: Test to measure ALK kinase inhibition (GST-PLCγ1 substrate, anti-phosphotyrosine ELISA, luminescence). Type of test: biochemical. The conditions noted are these: ALK kinase 180 ng/ml, 250 μM ATP, 30 minutes at 30° C. An outline of the steps:
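GST-PLCγ1 substrate-coated plate; ALK at 180 ng/ml in Tris pH 7.5 buffer with MgCl2, DTT, β-glycerophosphate, orthovanadate and 250 μM ATP, 30 min at 30 °C, inhibitor typically 30 μM to 10 nM. Phosphotyrosine detected with HRP anti-phosphotyrosine antibody, luminescence read-out.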
(In general: An ELISA detects its analyte on a solid surface through an enzyme-linked reagent.)
On to `COC(=O)c1c(-c2ccc(O)cc2F)nc2[nH]nc(C)c2c1-c1ccc(N2CCNCC2)cc1` [Compound 284], for which the IC50 was less than 100 nM.

`N#Cc1c(-c2cncs2)nc2[nH]nc(-c3ccco3)c2c1-c1ccc(N2CCNCC2)cc1` [Compound 285]: the IC50 was less than 100 nM.

For the molecule `Cc1cc(-c2nc3[nH]nc(C)c3c(-c3ccc(N4CCNCC4)cc3)c2C#N)c(F)cc1O` [Compound 286], the 50% inhibitory concentration (IC50) is less than 100 nM.

`N#Cc1c(-c2ccc(O)cc2F)nc2[nH]ncc2c1-c1ccc(-c2ccc(S(N)(=O)=O)cc2)o1` [Compound 287] showed an IC50 of less than 100 nM.

Take `COc1ccc(-c2nc3[nH]ncc3c(-c3ccc(C#CCN)o3)c2C#N)cc1` [Compound 288]: the IC50 was in the range of 1000 to 10000 nM.

`N#Cc1c(-c2ccc(O)cc2)nc2[nH]ncc2c1-c1ccc(CCCN)o1` [Compound 289] yielded an IC50 of less than 100 nM.

Consider `N#Cc1c(-c2ccc(CCl)cc2)nc2[nH]nc(-c3ccc(C(F)(F)F)cc3)c2c1-c1ccc(N2CCNCC2)cc1` [Compound 290], for which the IC50 lay within 1000 to 10000 nM.

In turn, `N#Cc1c(-c2ccc(CO)cc2)nc2[nH]nc(-c3ccc(C(F)(F)F)cc3)c2c1-c1ccc(N2CCNCC2)cc1` [Compound 291] came in with an IC50 of 1000 to 10000 nM.

In turn, `COC(=O)c1c(-c2ccc(O)c(C)c2)nc2[nH]nc(C)c2c1-c1ccc(N2CCNCC2)cc1` [Compound 293] yielded an IC50 of less than 100 nM.

In turn, `Cc1cc(-c2nc3[nH]nc(N)c3c(-c3ccc(N4CCNCC4)cc3)c2C#N)c(F)cc1O` [Compound 294] returned an IC50 of less than 100 nM.

`COC(=O)c1c(-c2ccc(O)cc2F)nc2[nH]nc(N)c2c1-c1ccc(N2CCNCC2)cc1` [Compound 295] yielded an IC50 of less than 100 nM.

Consider `CC(C)(C)C(=O)Oc1ccc(-c2nc3[nH]nc(-c4cccs4)c3c(-c3ccc(N4CCNCC4)cc3)c2C#N)c(F)c1` [Compound 296], for which the IC50 was in the range of 100 to 1000 nM.

`N#Cc1c(-c2ccc(OC(=O)c3ccccc3)cc2F)nc2[nH]nc(-c3cccs3)c2c1-c1ccc(N2CCNCC2)cc1` [Compound 297]: the half-inhibitory concentration (IC50) was in the range of 100 to 1000 nM.

In turn, `CC(=O)Oc1ccc(-c2nc3[nH]nc(-c4cccs4)c3c(-c3ccc(N4CCNCC4)cc3)c2C#N)c(F)c1` [Compound 298] had an IC50 of 100 to 1000 nM.

`CN(C)CCN1CCN(c2ccc(-c3c(C#N)c(-c4ccc(O)cc4)nc4[nH]nc(-c5ccc(Cl)cc5)c34)c(F)c2)CC1` [Compound 299] returned an IC50 of less than 100 nM.

The molecule `COC(=O)c1c(-c2ccc(OC(=O)C(C)(C)C)cc2F)nc2[nH]nc(C)c2c1-c1ccc(N2CCNCC2)cc1` [Compound 300] came in with an IC50 of less than 100 nM.

For `CC(C)(C)C(=O)Oc1ccc(-c2nc3[nH]nc(N)c3c(-c3ccc(N4CCNCC4)cc3)c2C#N)c(F)c1` [Compound 301], the IC50 lay within 100 to 1000 nM.
